According to publication PMC9532703, “A novel small molecule RK-019 inhibits FGFR2-amplification gastric cancer cell proliferation and induces apoptosis in vitro and in vivo” (Frontiers in Pharmacology, 2022):

Assays:
LIMK1(h) = molecular target: T1, LIMK1(h) (Homo sapiens, UniProt P53667); assay: Kinase selectivity panel; format: biochemical; conditions: read-out: Inhibition(%) @ 1 µM RK-019
T1 construct: purchased Eurofins Discovery Services (KinaseProfiler)
Procedure: (§1) Median-inhibitory concentration (IC50) and inhibition ratio of kinases by RK-019 was assessed by Eurofins Discovery Services (Dundee, United Kingdom) using the ATP-site competition binding assay in vitro. Firstly, gradient concentration of RK-019 against FGFRs, including FGFR1, FGFR2, FGFR3, and FGFR4, were tested. IC50 value was calculate by the GraphPad Prism software (v8.4.3, GraphPad Software, California, United States). Then, to measure the selectivity prolife of RK-019, a panel of 422 recombinant human kinases was screened at a concentration of 1 µM RK-019. Kinase MAP was drawn by webtools from Cell Signaling Technology, Inc. (www.cellsignal.com).

ROCK-II(r) = assay: Kinase selectivity panel; format: biochemical, rat; conditions: read-out: Inhibition(%) @ 1 µM RK-019
Procedure: as §1

Rsk1(r) = molecular target: T2, Rsk1(r) (Rattus norvegicus, UniProt Q63531); assay: Kinase selectivity panel; format: biochemical; conditions: read-out: Inhibition(%) @ 1 µM RK-019
T2 construct: purchased Eurofins Discovery Services (KinaseProfiler)

KATO III cells [1] = assay: Cell viability assay (MTT); format: cell-based; conditions: Homo sapiens, mean ± SD
Procedure: (§2) For suspension and mixed suspension adherent cells, the cells were seeded in 96-well plate with different cell density, 0.5×10^4 per well for 96 h treatment, 1×10^4 per well for 72 h treatment, 2×10^4 per well for 48 h treatment, and 5×10^4 per well for 24 h treatment. Different doses of RK-019 were treated as soon as the cell seeded in 96-well plates. For adherent cells, the cells were seeded in a 96-well plate with 3×10^3 per well and cultured overnight followed by administrated different doses of RK-019. After indicated time treatment, MTT solution at a final concentration of 0.5 mg/ml was added and incubated 2–4 h at 37°C. Formazan formed by the living cells was dissolved with DMSO and the absorbance was measured using a microplate spectrophotometer (MultiskanFC, ThermoFisher, Waltham, MA, United States) at 570 nm. IC50 value of RK-019 was calculated by the Graphpad Prism software.
(§3) All data were analyzed by the GraphPad Prism 8.4.3 (GraphPad Software, California, United States), and was shown as mean value ±SD or SEM, details will be illustrated in the figure legends. Dose-effect curve analysis (IC50 calculation) was performed by the Graphpad Prism software. […] The statistically significant p values were calculated by student’s t-test or two-way ANOVA and were shown in graphics which were labeled as follows: *p < 0.05; **p < 0.01; ***p < 0.001.

SNU-16 cells [2] = assay: Cell viability assay (MTT); format: cell-based; conditions: Homo sapiens; SNU-16, mean ± SD
Procedure: as §2, §3

KATO III cells [3] = assay: Cell cycle analysis by flow cytometry (PI staining); format: cell-based; conditions: 100 nM, 24 h
Procedure: (§4) Cell cycle and apoptosis assay were both measured by flow cytometry (FCM). The data were analyzed by the NovoExpress software (v1.4.0, Agilent, Santa Clara, CA, United States). For cell cycle assay, the cells were treated by different concentrations of RK-019 for 24 h, then were harvested and washed twice with cold phosphate buffered solution (PBS), followed by fixed with 75% ethanol overnight. Before test, the cells were washed twice with cold PBS and stained with PI stanning solution using cell cycle detecting kit (KGA512, KeyGEN, Nanjing, China), and then measured by FCM. For apoptosis assay, the cells were harvested after treated with different concentrations of RK-019 for 24 h, and stained with a PE Annexin V Apoptosis Detection Kit according to the manufacturer’s protocol followed by detected using FCM.

KATO III cells [4] = assay: Apoptosis analysis by flow cytometry (Annexin V-PE/7-AAD); format: cell-based; conditions: 72 h
Procedure: as §4, with “For apoptosis assay, the cells were harvested after treated with different concentrations of RK-019 for 24 h, and stained with a PE Annexin V Apoptosis Detection Kit according to the manufacturer’s protocol followed by detected using FCM.” left out

SNU-16 cells [5] = assay: as above; format: cell-based; conditions: SNU-16, 72 h
Procedure: as §4, with “For apoptosis assay, the cells were harvested after treated with different concentrations of RK-019 for 24 h, and stained with a PE Annexin V Apoptosis Detection Kit according to the manufacturer’s protocol followed by detected using FCM.” left out

KATO III cells [6] = assay: Transwell migration and invasion assay; format: cell-based; conditions: 100 nM, 24 h
Procedure: (§5) In the migration assay, 1×10^5 cells were resuspended in a serum-free medium, then added into the upper chamber, meanwhile the medium containing 10% FBS was added at the bottom with 100 nM RK-019. After 24 h incubation, the migration cells on the filters were fixed with 4% paraformldehyde and washed with PBS, then stained with crystal violet solution for 20 min. In the invasion assay, the upper surface of the transwell was coated with Matrigel (356234, Corning) for 30 min at 37°C until Matrigel was solidified. 1×10^5 cells were resuspended in a serum-free medium, then added into the upper chamber, meanwhile the medium containing 10% FBS was added at the bottom with 100 nM RK-019.After 24 h , the invasion cells on the filters were hatched and fixed, then stained with crystal violet.

SNU-16 cells [7] = assay: Transwell migration and invasion assay; format: cell-based; conditions: SNU-16, 100 nM, 24 h
Procedure: as §5

KATO III cells [8] = assay: Edu staining assay; format: cell-based; conditions: 100 nM, 24 h
Procedure: (§6) For Edu staining assay, 1×10^5 cells were seeded in 24-well plates. RK-019 and DMSO were treated as soon as the cells seeded into the plates. After 24 h, the cells were incubated with the medium contained 10 µM Edu for 2 h. After that, the cells were collected and fixated to slide, and then stained with the Cell-Light EdU Apollo488 In Vitro Kit (C10310, Ribobio, Guangzhou, China). After staining, the samples were photographed and analyzed by the ImageJ software (v1.53a, Wayne Rasband, United States).

SNU-16 cells [9] = assay: Edu staining assay; format: cell-based; conditions: SNU-16, 100 nM, 24 h
Procedure: as §6

KATO III cells [10] = assay: Cell counting assay (trypan blue); format: cell-based; conditions: KATO III, 5, 10, and 100 nM, 9 days
Procedure: (§7) SNU-16 and KATO III were seeded in 6-well plated with 1×10^5 per well. RK-019 was treated as soon as the cells seeded in the 6-well plates. After indicated time, the images were captured using an inverted microscope. Then, the cells in the captured well were resuspended and live cell numbers were determined by the trypan blue (BL627A, Biosharp, Hefei, China) method.

SNU-16 cells [11] = assay: Cell counting assay (trypan blue); format: cell-based; conditions: SNU-16, 10 and 100 nM, 9 days
Procedure: as §7

T2 sequence (Q63531 whole entry): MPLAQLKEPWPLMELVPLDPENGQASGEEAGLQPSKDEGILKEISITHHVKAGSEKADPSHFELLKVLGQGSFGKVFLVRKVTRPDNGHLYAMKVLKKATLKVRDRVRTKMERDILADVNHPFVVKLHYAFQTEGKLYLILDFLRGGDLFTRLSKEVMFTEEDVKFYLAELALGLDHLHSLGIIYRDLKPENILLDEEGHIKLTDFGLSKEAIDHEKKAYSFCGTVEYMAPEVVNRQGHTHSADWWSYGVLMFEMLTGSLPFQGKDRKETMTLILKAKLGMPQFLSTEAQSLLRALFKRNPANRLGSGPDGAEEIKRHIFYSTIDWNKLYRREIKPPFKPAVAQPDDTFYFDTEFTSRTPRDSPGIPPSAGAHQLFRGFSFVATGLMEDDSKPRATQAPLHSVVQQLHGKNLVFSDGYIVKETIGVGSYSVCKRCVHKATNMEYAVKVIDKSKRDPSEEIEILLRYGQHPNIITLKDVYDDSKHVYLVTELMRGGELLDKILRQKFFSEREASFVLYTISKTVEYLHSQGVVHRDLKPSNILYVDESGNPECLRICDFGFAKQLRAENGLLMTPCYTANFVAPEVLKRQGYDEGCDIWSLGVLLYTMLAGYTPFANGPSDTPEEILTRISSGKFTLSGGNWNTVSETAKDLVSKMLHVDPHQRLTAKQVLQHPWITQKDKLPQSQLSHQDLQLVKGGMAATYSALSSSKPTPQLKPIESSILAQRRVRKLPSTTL
T1 sequence (P53667 whole entry): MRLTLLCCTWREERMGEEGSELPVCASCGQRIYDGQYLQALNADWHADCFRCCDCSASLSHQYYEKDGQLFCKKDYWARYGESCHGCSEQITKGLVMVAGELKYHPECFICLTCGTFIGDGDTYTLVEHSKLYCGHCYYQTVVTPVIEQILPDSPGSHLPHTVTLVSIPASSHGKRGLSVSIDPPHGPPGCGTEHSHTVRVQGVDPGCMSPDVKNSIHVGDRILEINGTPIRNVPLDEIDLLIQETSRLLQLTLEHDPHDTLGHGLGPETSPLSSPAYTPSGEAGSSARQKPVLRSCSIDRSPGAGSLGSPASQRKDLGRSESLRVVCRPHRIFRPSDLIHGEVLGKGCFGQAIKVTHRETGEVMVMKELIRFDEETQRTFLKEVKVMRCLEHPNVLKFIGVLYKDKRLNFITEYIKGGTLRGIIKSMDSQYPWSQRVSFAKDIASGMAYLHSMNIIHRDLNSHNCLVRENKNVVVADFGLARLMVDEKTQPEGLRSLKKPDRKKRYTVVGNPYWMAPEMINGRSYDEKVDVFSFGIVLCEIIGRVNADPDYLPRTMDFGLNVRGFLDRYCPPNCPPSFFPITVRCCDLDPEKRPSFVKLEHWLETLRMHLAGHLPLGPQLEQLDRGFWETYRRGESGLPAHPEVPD

COc1cc(OC)cc(N(CCN[C@H](C)CO)c2ccc3ncc(-c4cnn(C)c4)c(=O)n3c2)c1 [RK-019, (R)-7-((3,5-dimethoxyphenyl) (2-((1-hydroxypropan-2-yl)amino)ethyl)amino)-3-(1-methyl-1H-pyrazol-4-yl)-4H-pyrido [1,2-a]pyrimidin-4-one]
activity at 1 µM (LIMK1(h)): 103%
activity (ROCK-II(r)): 91%
activity at 1 µM (Rsk1(r)): 96%
IC50 (KATO III cells [1]): 5.45 ± 5.3 nM
IC50 (SNU-16 cells [2]): 3.96 ± 4.4 nM
G0/G1 proportion (KATO III cells [3]): 67.88%
population of apoptotic cells (early and late apoptotic cells) (KATO III cells [4]): 32.7%
population of apoptotic cells (early and late apoptotic cells) (SNU-16 cells [5]): 45.5%
migration and invasion ability (KATO III cells [6]): significantly suppress
migration and invasion ability (SNU-16 cells [7]): significantly suppress
number of Edu-positive stained cells (KATO III cells [8]): significantly decreased
number of Edu-positive stained cells (SNU-16 cells [9]): significantly decreased
live cell numbers, prolonged administration (KATO III cells [10]): suppressed
live cell numbers, prolonged administration (SNU-16 cells [11]): inhibited
